Source: patent US9670227B2, “Thienopyrimidine derivatives, a process for their preparation and pharmaceutical compositions containing them” (LES LABORATOIRES SERVIER, priority 2013, dated 2017)

Each compound was assayed against Mcl-1 protein (UniProtKB primary accession number: Q07820) (Homo sapiens, UniProt Q07820) (assay: Inhibition of Mcl-1 by fluorescence polarisation, Method 1). Conditions: fluorescence polarisation; Method 1, or Method 2; read-out: IC50 (M) Mcl-1 FP.
Format: binding
In short: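 FP competition, 11-point compound titration in 5% final DMSO; protein and labelled probe at 5 nM and 1 nM final in HEPES/NaCl/Tween 20 buffer, pH 7.4.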

Mcl-1 protein, sequence (Q07820 whole entry): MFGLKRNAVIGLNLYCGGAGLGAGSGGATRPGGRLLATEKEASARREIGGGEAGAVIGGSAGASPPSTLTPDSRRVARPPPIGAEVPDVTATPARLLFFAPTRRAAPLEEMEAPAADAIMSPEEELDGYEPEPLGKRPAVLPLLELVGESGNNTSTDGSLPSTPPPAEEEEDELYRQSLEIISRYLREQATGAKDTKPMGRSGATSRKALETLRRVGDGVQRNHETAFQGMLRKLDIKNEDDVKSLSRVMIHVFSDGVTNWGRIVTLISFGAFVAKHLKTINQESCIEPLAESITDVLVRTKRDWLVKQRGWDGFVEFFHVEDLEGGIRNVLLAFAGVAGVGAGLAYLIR

| Structure (SMILES) | IC50 |
| --- | --- |
| COc1ccccc1CC(Oc1ncnc2sc(-c3ccc(F)c(F)c3F)c(-c3ccc(OCCN4CCN(C)CC4)c(Cl)c3C)c12)C(=O)O [Example 537, (2R)-2-{[(5Sa)-5-{3-chloro-2-methyl-4-[2-(4-methylpiperazin-1-yl)ethoxy]phenyl}-6-(2,3,4-trifluorophenyl)thieno[2,3-d]pyrimidin-4-yl]oxy}-3-(2-methoxyphenyl)propanoic acid] | 4.3e-08 M |
| COc1ccccc1CC(Oc1ncnc2sc(-c3ccc(C(OC)OC)o3)c(-c3ccc(OCCN4CCN(C)CC4)c(Cl)c3C)c12)C(=O)O [Example 542, (2R)-2-[((5Sa)-5-{3-chloro-2-methyl-4-[2-(4-methylpiperazin-1-yl)ethoxy]phenyl}-6-[5-(dimethoxymethyl)furan-2-yl]thieno[2,3-d]pyrimidin-4-yl)oxy]-3-(2-methoxyphenyl)propanoic acid] | 4.3e-07 M |
| COc1ccccc1CC(Oc1ncnc2sc(-c3cccc(Cl)c3)c(-c3ccc(OCCN4CCN(C)CC4)c(Cl)c3C)c12)C(=O)O [Example 550, (2R)-2-{[(5Sa)-5-{3-chloro-2-methyl-4-[2-(4-methylpiperazin-1-yl)ethoxy]phenyl}-6-(3-chlorophenyl)thieno[2,3-d]pyrimidin-4-yl]oxy}-3-(2-methoxyphenyl)propanoic acid] | 4.8e-08 M |
| COc1ccccc1CC(Oc1ncnc2sc(-c3cccc(OC(F)(F)F)c3)c(-c3ccc(OCCN4CCN(C)CC4)c(Cl)c3C)c12)C(=O)O [Example 555, (2R)-2-[((5Sa)-5-{3-chloro-2-methyl-4-[2-(4-methylpiperazin-1-yl)ethoxy]phenyl}-6-[3-(trifluoromethoxy)phenyl]thieno[2,3-d]pyrimidin-4-yl)oxy]-3-(2-methoxyphenyl)propanoic acid] | 3.9e-07 M |
| COc1ccccc1CC(Oc1ncnc2sc(-c3cccc(OC(F)(F)F)c3F)c(-c3ccc(OCCN4CCN(C)CC4)c(Cl)c3C)c12)C(=O)O [Example 562, (2R)-2-[((5Sa)-5-{3-chloro-2-methyl-4-[2-(4-methylpiperazin-1-yl)ethoxy]phenyl}-6-[2-fluoro-3-(trifluoromethoxy)phenyl]thieno[2,3-d]pyrimidin-4-yl)oxy]-3-(2-methoxyphenyl)propanoic acid] | 5.1e-07 M |
| COc1ccccc1CC(Oc1ncnc2sc(-c3ccccc3F)c(-c3ccc(OCCN4CCN(C)CC4)c(Cl)c3C)c12)C(=O)O [Example 566, (2R)-2-{[(5Sa)-5-{3-chloro-2-methyl-4-[2-(4-methylpiperazin-1-yl)ethoxy]phenyl}-6-(2-fluorophenyl)thieno[2,3-d]pyrimidin-4-yl]oxy}-3-(2-methoxyphenyl)propanoic acid] | 3e-08 M |
| COC(=N)c1ccc(-c2sc3ncnc(OC(Cc4ccccc4OC)C(=O)O)c3c2-c2ccc(OCCN3CCN(C)CC3)c(Cl)c2C)o1 [Example 580, (2R)-2-[((5Sa)-5-{3-chloro-2-methyl-4-[2-(4-methylpiperazin-1-yl)ethoxy]phenyl}-6-[5-(methoxycarbonoimidoyl)furan-2-yl]thieno[2,3-d]pyrimidin-4-yl)oxy]-3-(2-methoxyphenyl)propanoic acid] | 3.7e-08 M |
| COc1ccccc1CC(Oc1ncnc2sc(-c3ccc(C(N)=O)o3)c(-c3ccc(OCCN4CCN(C)CC4)c(Cl)c3C)c12)C(=O)O [Example 581, (2R)-2-{[6-(5-carbamoylfuran-2-yl)-(5Sa)-5-{3-chloro-2-methyl-4-[2-(4-methylpiperazin-1-yl)ethoxy]phenyl}thieno[2,3-d]pyrimidin-4-yl]oxy}-3-(2-methoxyphenyl)propanoic acid] | 4.2e-07 M |
| COc1ccccc1CC(Oc1ncnc2sc(-c3ccc(C(=O)N(C)C)o3)c(-c3ccc(OCCN4CCN(C)CC4)c(Cl)c3C)c12)C(=O)O [Example 582, (2R)-2-[((5Sa)-5-{3-chloro-2-methyl-4-[2-(4-methylpiperazin-1-yl)ethoxy]phenyl}-6-[5-(dimethylcarbamoyl)furan-2-yl]thieno[2,3-d]pyrimidin-4-yl)oxy]-3-(2-methoxyphenyl)propanoic acid] | 8.4e-08 M |
| COC(=O)c1ccc(-c2sc3ncnc(OC(Cc4ccccc4OC)C(=O)O)c3c2-c2ccc(OCCN3CCN(C)CC3)c(Cl)c2C)o1 [Example 583, (2R)-2-[((5Sa)-5-{3-chloro-2-methyl-4-[2-(4-methylpiperazin-1-yl)ethoxy]phenyl}-6-[5-(methoxycarbonyl)furan-2-yl]thieno[2,3-d]pyrimidin-4-yl)oxy]-3-(2-methoxyphenyl)propanoic acid] | 1.1e-07 M |
| COc1ccccc1CC(Oc1ncnc2sc(-c3ccc(-c4ccccc4)o3)c(-c3ccc(OCCN4CCN(C)CC4)c(Cl)c3C)c12)C(=O)O [Example 586, (2R)-2-{[(5Sa)-5-{3-chloro-2-methyl-4-[2-(4-methylpiperazin-1-yl)ethoxy]phenyl}-6-(5-phenylfuran-2-yl)thieno[2,3-d]pyrimidin-4-yl]oxy}-3-(2-methoxyphenyl)propanoic acid] | 1.4e-06 M |

Further lines, results first:

| IC50 | Structure (SMILES) |
| --- | --- |
| 2.8e-08 M | COc1ccccc1CC(Oc1ncnc2sc(-c3cccc(F)c3)c(-c3ccc(OCCN4CCN(C)CC4)c(Cl)c3C)c12)C(=O)O [Example 551, (2R)-2-{[(5Sa)-5-{3-chloro-2-methyl-4-[2-(4-methylpiperazin-1-yl)ethoxy]phenyl}-6-(3-fluorophenyl)thieno[2,3-d]pyrimidin-4-yl]oxy}-3-(2-methoxyphenyl)propanoic acid] |
| 2.1e-08 M | COc1ccccc1CC(Oc1ncnc2sc(-c3cccnc3)c(-c3ccc(OCCN4CCN(C)CC4)c(Cl)c3C)c12)C(=O)O [Example 567, (2R)-2-{[(5Sa)-5-{3-chloro-2-methyl-4-[2-(4-methylpiperazin-1-yl)ethoxy]phenyl}-6-(pyridin-3-yl)thieno[2,3-d]pyrimidin-4-yl]oxy}-3-(2-methoxyphenyl)propanoic acid] |
| 1.9e-08 M | CC#Cc1sc2ncnc(OC(Cc3ccccc3OC)C(=O)O)c2c1-c1ccc(OCCN2CCN(C)CC2)c(Cl)c1C [Example 572, (2R)-2-{[(5Sa)-5-{3-chloro-2-methyl-4-[2-(4-methylpiperazin-1-yl)ethoxy]phenyl}-6-(prop-1-yn-1-yl)thieno[2,3-d]pyrimidin-4-yl]oxy}-3-(2-methoxyphenyl)propanoic acid] |
| 1.2e-08 M | COc1ccccc1CC(Oc1ncnc2sc(-c3cccc(Oc4ccc(F)cc4)c3)c(-c3ccc(OCCN4CCN(C)CC4)c(Cl)c3C)c12)C(=O)O [Example 556, (2R)-2-[((5Sa)-5-{3-chloro-2-methyl-4-[2-(4-methylpiperazin-1-yl)ethoxy]phenyl}-6-[3-(4-fluorophenoxy)phenyl]thieno[2,3-d]pyrimidin-4-yl)oxy]-3-(2-methoxyphenyl)propanoic acid] |
| 1.1e-08 M | COCCCc1sc2ncnc(OC(Cc3ccccc3OCc3ccnc(OC)n3)C(=O)O)c2c1-c1ccc(OCCN2CCN(C)CC2)c(Cl)c1C [Example 599, (2R)-2-{[(5Sa)-5-{3-chloro-2-methyl-4-[2-(4-methylpiperazin-1-yl)ethoxy]phenyl}-6-(3-methoxypropyl)thieno[2,3-d]pyrimidin-4-yl]oxy}-3-{2-[(2-methoxypyrimidin-4-yl)methoxy]phenyl}propanoic acid] |
| 8.4e-09 M | CCCCn1nccc1COc1ccccc1CC(Oc1ncnc2sc(C#N)c(-c3ccc(OCCN4CCN(C)CC4)c(Cl)c3C)c12)C(=O)O [Example 614, (2R)-3-{2-[(1-butyl-1H-pyrazol-5-yl)methoxy]phenyl}-2-[((5Sa)-5-{3-chloro-2-methyl-4-[2-(4-methylpiperazin-1-yl)ethoxy]phenyl}-6-cyanothieno[2,3-d]pyrimidin-4-yl)oxy]propanoic acid] |
| 7.6e-09 M | COc1ccccc1CC(Oc1ncnc2sc(-c3ccc(Br)o3)c(-c3ccc(OCCN4CCN(C)CC4)c(Cl)c3C)c12)C(=O)O [Example 577, (2R)-2-{[6-(5-bromofuran-2-yl)-(5Sa)-5-{3-chloro-2-methyl-4-[2-(4-methylpiperazin-1-yl)ethoxy]phenyl}thieno[2,3-d]pyrimidin-4-yl]oxy}-3-(2-methoxyphenyl)propanoic acid] |
| 5.6e-09 M | CCCCn1nccc1COc1ccccc1CC(Oc1ncnc2sc(-c3ccc(N)nc3)c(-c3ccc(OCCN4CCN(C)CC4)c(Cl)c3C)c12)C(=O)O [Example 618, (2R)-2-{[6-(6-aminopyridin-3-yl)-(5Sa)-5-{3-chloro-2-methyl-4-[2-(4-methylpiperazin-1-yl)ethoxy]phenyl}thieno[2,3-d]pyrimidin-4-yl]oxy}-3-{2-[(1-butyl-1H-pyrazol-5-yl)methoxy]phenyl}propanoic acid] |

Same assay, conditions: partial inhibitors; @ 10 uM test compound

| percentage fluorescence polarisation inhibition, Mcl-1 FP | Structure (SMILES) |
| --- | --- |
| 26.95% @ 10 uM | CCOC(=O)[C@@H](Cc1ccccc1OCc1ccnn1C(C)C)Oc1ncnc2sc(-c3ccc(F)cc3)c(-c3ccc(OCCN4CCN(C)CC4)c(Cl)c3C)c12 [Example 624, ethyl (2R)-2-{[(5Sa)-5-{3-chloro-2-methyl-4-[2-(4-methylpiperazin-1-yl)ethoxy]phenyl}-6-(4-fluorophenyl)thieno[2,3-d]pyrimidin-4-yl]oxy}-3-(2-{[1-(propan-2-yl)-1H-pyrazol-5-yl]methoxy}phenyl)propanoate] |

Same assay, conditions: partial inhibitors; @ 10 uM test compound; 10 µM

| Structure (SMILES) | percentage fluorescence polarisation inhibition, Mcl-1 FP |
| --- | --- |
| COc1ccccc1CC(Oc1ncnc2sc(C(=O)N(C)C)c(-c3ccc(OCCN4CCN(C)CC4)c(Cl)c3C)c12)C(=O)O [Example 574, (2R)-2-{[(5Ra)-5-{3-chloro-2-methyl-4-[2-(4-methylpiperazin-1-yl)ethoxy]phenyl}-6-(dimethylcarbamoyl)thieno[2,3-d]pyrimidin-4-yl]oxy}-3-(2-methoxyphenyl)propanoic acid] | 24.3% @ 10 uM |
| COc1ccccc1CC(Oc1ncnc2sc(C(=O)N(C)C)c(-c3ccc(OCCN4CCN(C)CC4)c(Cl)c3C)c12)C(=O)O [Example 575, (2R)-2-{[(5Sa)-5-{3-chloro-2-methyl-4-[2-(4-methylpiperazin-1-yl)ethoxy]phenyl}-6-(dimethylcarbamoyl)thieno[2,3-d]pyrimidin-4-yl]oxy}-3-(2-methoxyphenyl)propanoic acid] | 46.8% @ 10 uM |
